Columns and labels:
[1] = test system: CU-ACC1; experiment: area under concentration-response curve (viability) (AUC (a.u.)); higher = less active; conditions: 48 h
Outline: (§1)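 Cells from three adrenocortical carcinoma lines were seeded at 500–1,000 cells/well in 5 µL medium in 1,536-well plates. Each library compound was added as 23 nL at 11 concentrations, and after 48 h CellTiter-Glo was added for 15 minutes at room temperature before reading luminescence. Plate-wise normalisation to vehicle and empty-well controls preceded curve fitting. AC50 and area under the curve were calculated only for inhibitory or non-responding curve classes.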

[2] = test system: NCI-H295R; experiment: as above; conditions: 48 h
Outline: as §1

Row | SMILES | area under concentration-response curve [1] | area under concentration-response curve [2]
1 | COC(=O)[C@@H]1CC/2=C/C(=O)CC[C@]2(C)[C@@]34O[C@@H]3C[C@@]5(C)[C@@H](CC[C@@]56CCC(=O)O6)[C@H]14 | 355 | 528
2 | O=C(Nc1nc2ccccc2n1CCN1CCOCC1)c1cccc([N+](=O)[O-])c1 | 527 | 549
3 | N[C@@H](Cc1c[nH]c2ccc(O)cc12)C(=O)O | 483 | 567
4 | C[C@@H]1CC(=O)Nc2cccc(-c3cnn(C(C)(C)C)c3)c2N1 | 551 | 570
5 | CCOc1ccc(Cc2cc([C@@H]3O[C@H](CO)[C@@H](O)[C@H](O)[C@H]3O)ccc2Cl)cc1 | 464 | 494
6 | OCCN1CCN(CCCN2c3ccccc3Sc3ccc(C(F)(F)F)cc32)CC1 | 432 | 279
7 | CC[C@@H]1[C@H](F)C(=O)N[C@@H]1COc1nccc2cc(C(N)=O)c(OC)cc12 | 472 | 532
8 | Cn1c(CCCC(=O)O)nc2cc(N(CCCl)CCCl)ccc21 | 475 | 540
9 | CC(C)(S)[C@@H](N)C(=O)O | 637 | 711
10 | CCNC(=O)Nc1ncc(-c2cc(-c3c(C)cc(OC)cc3C)nc(-c3cnccn3)n2)s1 | 482 | 520
11 | CCOC(=O)O[C@@]1(CC[C@H]2[C@@H]3CCC/4=C/C(=O)/C=C\[C@]4(C)[C@H]3[C@@H](O)C[C@]12C)C(=O)OCCl | 364 | 395
12 | CC#CC(=O)N1CCC[C@H]1c1nc(-c2ccc(C(=O)Nc3ccccn3)cc2)c2c(N)nccn12 | 474 | 509
13 | O=C(Nc1cnn2ccc(N3CCC[C@@H]3c3cc(F)ccc3F)nc12)N1CC[C@H](O)C1 | 534 | 554
14 | C1C\N=C(\NC(C2CC2)C3CC3)O1 | 542 | 591
15 | CCn1c(C(=O)N(C2CC2)C2CC2)cc2c3c(ncn3C)c(Nc3cc(C)n(C)n3)nc21 | 422 | 540
16 | CC1=CC=C(C=C1)N(C\C2=N\CCN2)C3=CC=CC(=C3)O | 479 | 518
17 | COc1cccc(OC)c1-c1cc(C(=O)NC2(C(=O)O)C3CC4CC(C3)CC2C4)nn1-c1ccnc2cc(Cl)ccc12 (stereo unspecified) | 513 | 569
18 | CNC(=O)c1ccc2c(c1)NC(=O)/C2=C(\Nc1cccc(CN(C)C)c1)c1ccccc1 | 323 | 441
19 | CCC(C)(C)C(=O)O[C@H]1C[C@@H](C)\C=C2\C=C/[C@H](C)[C@H](CC[C@@H]3C[C@@H](O)CC(=O)O3)[C@@H]12 | 399 | 565
20 | CCN1\C=C(C(O)=O)/C(=O)C2=C1C=C(N3CCN(C)CC3)C(=C2)F | 511 | 555

Row | SMILES | area under concentration-response curve [1] | area under concentration-response curve [2]
21 | COC1=CC=C2C(=CC=NC2=C1)OC3=CC=C(NC(=O)\C4=C(C)\N(CC(C)(C)O)N(C4=O)C5=CC=CC=C5)C=C3F | 398 | 459
22 | O=C(NOCCO)c1cc(CN2OCCCC2=O)c(F)c(F)c1Nc1ccc(I)cc1F | 267 | 267
23 | COc1cc(C(=O)O)ccc1NC(=O)[C@@H]1N[C@@H](CC(C)(C)C)[C@](C#N)(c2ccc(Cl)cc2F)[C@H]1c1cccc(Cl)c1F | 469 | 540
24 | COC(=O)N1CC2(CC2)C[C@H](C(=O)NO)[C@H]1C(=O)N1CCN(c2ccccc2)CC1 | 412 | 470
25 | COCCOC(=O)C/1=C(C)/NC/2=C(C1C3=CC=CC(=C3)O)/C(=O)CC(C2)C4=C(OC)C=CC=C4 (stereo unspecified) | 446 | 507
26 | CC(=O)N[C@H]1CSSC[C@@H](C(N)=O)NC(=O)[C@H](C(C)C)NC(=O)[C@H](C)NC(=O)[C@H](Cc2cnc[nH]2)NC1=O | 501 | 551
27 | CONC(=O)Nc1ccc(-c2sc3c(c2CN(C)C)c(=O)n(-c2ccc(OC)nn2)c(=O)n3Cc2c(F)cccc2F)cc1 | 354 | 458
28 | COc1nc(N)nc2c1ncn2C1OC(CO)C(O)C1O (stereo unspecified) | 461 | 469
29 | NC\1=N\C(=O)N(\C=C1F)[C@H]2C[C@H](O)[C@@H](CO)O2 | 334 | 416
30 | COC1=C(OC)C=C2C(=C1)C(=O)N(CCC[N]3C=CN=C3)\C4=C2\C(=O)C5=CC6=C(OCO6)C=C45 | 468 | 517
31 | CC1(C)CN(C(=O)c2ccc(-c3cccc4nc(NC(=O)C5CC5)nn34)cc2)C1 | 345 | 381
32 | O=C(/C=C/c1ccc(O)cc1)c1ccc(O)cc1O | 465 | 492
33 | COC1=CC=CC(=C1/C2=N/CC3=C(N=C(NC4=CC(=C(C=C4)C(O)=O)OC)N=C3)C5=CC=C(Cl)C=C25)F | 441 | 469
34 | CC(C)CC(N(C)C)C1(c2ccc(Cl)cc2)CCC1 (stereo unspecified) | 291 | 349
35 | CC1=NN(c2ccc(C)c(C)c2)C(=O)/C1=N/Nc1cccc(-c2cccc(C(=O)O)c2)c1O | 437 | 500
36 | c1cc(OCCN2CCCCC2)cc(-c2n[nH]c3ccc(-c4nc[nH]n4)cc23)c1 | 525 | 563
37 | CCOC(=O)C1=CCCCC1[S+](=O)([O-])Nc1ccc(F)cc1Cl (stereo unspecified) | 517 | 573
38 | O=C(O)C1(Cc2cccc(Nc3nccs3)n2)CCC(Oc2cccc(Cl)c2F)CC1 (stereo unspecified) | 511 | 510
39 | CC(=O)Oc1ccccc1C(=O)O | 357 | 402
40 | COC/1=C(\CNC(=O)C2=C(C)[N]([C@H](C)C3CCOCC3)C4=CC=CC=C24)C(=O)NC(=C1)/C | 357 | 429

Row | SMILES | area under concentration-response curve [1] | area under concentration-response curve [2]
41 | CN[C@@H](C)[C@H]1[C@H](O)C[C@@]2(C)[C@@H]3CC[C@H]4C(C)(C)[C@@H](NC)CC[C@@]45C[C@@]35CC[C@]12C | 546 | 613
42 | COc1cc2c(cc1OC)C1CC(=O)C(CC(C)C)CN1CC2 (stereo unspecified) | 506 | 567
43 | CN1C(=O)[C@@H](NC(=O)c2nc(Cc3ccccc3)n[nH]2)COc2ccccc21 | 536 | 559
44 | O=C(O)CC/C=C\CC[C@@H]1[C@@H](N2CCCCC2)[C@@H](O)C[C@@H]1OCc1ccc(-c2ccccc2)cc1 | 389 | 424
45 | CCCC[S+](=N)([O-])CCC(N)C(=O)O (stereo unspecified) | 472 | 533
46 | Cn1cnc2c1c(=O)[nH]c(=O)n2C | 544 | 575
47 | CONC(=O)Nc1ccc(-c2sc3c(c2CN(C)Cc2ccccc2)c(=O)n(-c2ccccc2)c(=O)n3Cc2c(F)cccc2F)cc1 | 531 | 556
48 | Cc1ncc(OC[C@@]2(c3cccc(F)c3)C[C@H]2C(=O)Nc2ccc(F)cn2)c(C)n1 | 457 | 516
49 | Cn1ncc(Cl)c1-c1cc(C(=O)N[C@H](CN)Cc2cccc(F)c2)sc1Cl | 305 | 335
50 | Cc1csc(-c2nnc(Nc3ccc(Oc4ncccc4-c4ccnc(N)n4)cc3)c3ccccc23)c1 | 504 | 470
51 | CCCN1CCN(c2ccc(C(=O)NC3(C(=O)NCC#N)CCCCC3)cc2)CC1 | 375 | 299
52 | O=C(Nc1ccc(F)c(C(F)(F)F)c1)Nc1nnc(-c2ccncc2)s1 | 444 | 464
53 | C[C@@]1(c2ncncc2F)NC(=O)c2cc(-c3cn[nH]c3)ccc21 | 528 | 546
54 | CN(C[C@@H]1COCCO1)[S+]([O-])(=O)NC2=CC3=C(C=C2)\C=C/C4=C(C=C(C=N4)C5=C[N](C)N=C5)C3=O | 547 | 578
55 | CN1CCCN(CC1)C2=CC=C3C(=O)\C(=C/4SC5=C(C=CC=C5)N4C3=N2)C(=O)NCC6=CN=C(C)C=N6 | 528 | 554
56 | NC(=O)c1nc(F)cnc1O | 506 | 553
57 | CCCCOCCOc1nc(-c2ccc(C(=O)O)c(F)c2)sc1C | 367 | 399
58 | O=[S+]([O-])(CCSSCC[S+](=O)([O-])[O][Na])[O][Na] | 469 | 544

From the supplement of paper PMC10949913
